Measurements published in the METLIN SMRT retention time set (Domingo-Almenara et al. 2019).

Assay: gradient 5% acetonitrile 3 min, to 50% in 2 min, to 85% in 15 min, held 3 min, 100 µL/min
Details: column: Zorbax Extend-C18 2.1 x 50 mm; eluents: water / acetonitrile, 0.1% formic acid
How it was run: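 The mobile phases were water and acetonitrile, each with 0.1% formic acid, pumped at 100 μL/min through a Zorbax Extend-C18 column (2.1 × 50 mm, 1.8 μm). Pure standards were injected as mixtures of ~100 molecules and detected by a quadrupole time-of-flight mass spectrometer in positive and negative ionization mode. Retention time came from computationally picked adduct peaks, each inspected by hand.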

RP-LC retention time | Structure (SMILES)
674 s | COc1ccc2c(c1)CCc1c-2n[nH]c1C(=O)O
820 s | CSc1ccc(CCNC(=O)C2CCCN(c3ncnc4c3nc3n4CCCCC3)C2)cc1 (centres undefined)
849 s | Cc1ccc2nc(NC(=O)C3CCN(S(=O)(=O)c4cn(C(C)C)cn4)CC3)sc2c1
848 s | CCN(CC)S(=O)(=O)c1ccc2c(c1)CC(C(=O)NCCC(C)C)N2C(C)=O (centres undefined)
584 s | COCc1noc([C@@H]2CC(F)(F)CN2C(=O)c2cncn2C)n1
1300 s | CC(C)(C)c1csc(-c2csc(S(=O)(=O)Nc3ccc(Cl)cc3)c2)n1
603 s | O=C(NC1CCCN(c2cc(-c3ccncc3)[nH]n2)C1)c1ccc2c(c1)OCO2 (centres undefined)
627 s | CCC1CCCCN1CCCNC(=O)c1ccnc(-c2cccs2)c1 (centres undefined)
729 s | O=C(Cn1nc(C2CC2)c2cnn(-c3ccc(F)cc3)c2c1=O)NCC1CCCO1 (centres undefined)
740 s | Cc1ccc(F)cc1S(=O)(=O)N1CCC(n2cnnc2C(C)C)CC1
1110 s | O=C(CSc1nccnc1N1CCN(c2ccccc2)CC1)Nc1ccc(F)cc1F
567 s | CC1=C(C(=O)NCCCN2CC(C)CC(C)C2)C2(CCN(Cc3ccccc3)CC2)OC1=O (centres undefined)
870 s | Cn1c(=O)c(=O)n(C)c2cc(Oc3ccccc3)c(NC(=O)C3CCCCC3)cc21
689 s | CCCn1cc(-c2ccncc2)cc1C(=O)NCc1ccccc1C
616 s | c1ccn(CCc2ccncc2)c1
729 s | CCOC(=O)N1CCN(S(=O)(=O)c2cc(N3C(=O)CCS3(=O)=O)ccc2C)CC1
651 s | Cc1ccc(S(=O)(=O)N2CCC(C3CCNC3)CC2)cc1F (centres undefined)
1080 s | COc1cccc(-c2nc(Cn3ccn4nc(-c5ccc(F)cc5)cc4c3=O)c(C)o2)c1OC
854 s | COc1cc(OC)c(NC(=O)NC2CCN(c3ccc(F)cc3)C2=O)cc1Cl (centres undefined)
1070 s | COC(=O)c1ccc(CSc2ncnc3c2cnn3-c2ccc(C)cc2C)o1
806 s | Cc1cc2c(cc1S(=O)(=O)N1CCCC1C(=O)N(C)C1CCCCC1)OC(C)C(=O)N2 (centres undefined)
837 s | CN1C(=O)C(C)(C(=O)NCc2ccc(Br)cc2)Oc2cccnc21 (centres undefined)

RP-LC retention time | Structure (SMILES)
757 s | Cc1ccc(CNC(=O)N2CCC(N3CCN(Cc4cccc(F)c4)C(=O)C3=O)CC2)cc1
739 s | CCOC(=O)C1CCN(C2=NS(=O)(=O)c3ccccc32)CC1
819 s | Cc1c(C(=O)N2CCN(C(=O)COc3ccccc3)CC2)[nH]c2ccccc12
613 s | O=C(c1ccc(F)cc1F)N1CCN(c2nc(CN3CCCC3)cs2)CC1
884 s | CC(Oc1ccc(Cl)cc1)C(=O)N1CCN(c2cc(-c3ccccc3)[nH]n2)CC1 (centres undefined)
756 s | Cc1nc(Nc2ncc3c(n2)CC(c2ccc(F)cc2)CC3=O)nc2ccccc12 (centres undefined)
846 s | O=S(=O)(c1ccccc1Cl)N1CCN(Cc2cccc(F)c2)C2(CCOCC2)C1
1120 s | COc1ccccc1-c1nc(Cn2nnc(-c3nc(-c4ccccc4Cl)no3)c2C)c(C)o1
727 s | O=C(Cn1nc2c3ccccc3ncn2c1=O)Nc1ccc(Cl)cc1
863 s | COc1ccccc1-c1noc(CCn2nc(-c3ccc(F)cc3)ccc2=O)n1
589 s | CC(C)c1nc2cccnc2n1CCN1CCN(C(=O)Nc2ccc(F)cc2F)CC1
601 s | CCn1c(=O)c2ccccc2n(CC(=O)N2CCC(C(N)=O)CC2)c1=O
1140 s | CC(C)Oc1ccc(-c2noc(Cn3c(=O)n(C(C)C)c(=O)c4ccccc43)n2)cc1
726 s | COC(=O)c1c(C)[nH]c(C(=O)N2CCCC(C(=O)N(C)Cc3ccco3)C2)c1C (centres undefined)
1110 s | Fc1ccc(-c2nnc(-c3nc(NC4CCCCC4)c4ccccc4n3)o2)cc1
751 s | CCNC(=O)N1CC(c2nc(-c3ccc(F)cc3)no2)C2(CCOCC2)C1 (centres undefined)
856 s | CC1CCCN(Cc2nc(-c3ccc(N4CCSCC4)nc3)no2)C1 (centres undefined)
878 s | CCCS(=O)(=O)Nc1ccc(F)c(C(=O)c2c[nH]c3ncc(Cl)cc23)c1F
852 s | O=c1c2nc(-c3ccccc3)cn2ccn1-c1cccc(Cl)c1
644 s | Cc1noc(C)c1CCC(=O)N(C)C1CCc2nn(CC3CC3)c(=O)n2CC1 (centres undefined)
590 s | O=C(NCCCN1CCOCC1)c1ccc(-c2c(-c3ccc(F)cc3)ncn2C2CCCC2)o1
848 s | CCn1ncn2cc(S(=O)(=O)Nc3ccc(F)cc3)cc2c1=O

RP-LC retention time | Structure (SMILES)
746 s | COC[C@@H]1CN(S(=O)(=O)c2ccc(C#N)cc2)C[C@H]1c1ccncc1
1210 s | Cc1nc(-n2cccc2)sc1C(=O)OCc1cc(-c2ccc3c(c2)OCCO3)on1
923 s | COc1ccc(CC(=O)Nc2cc3c(cc2SC(C)C)n(C)c(=O)n3C)cc1
733 s | O=C(NC(c1ccccc1)c1nnc(N2CCOCC2)o1)c1ccccc1F (centres undefined)
843 s | COC(=O)c1c(NC(C)c2cccc(OC)c2)c2cccc(Cl)c2[nH]c1=O (centres undefined)
1050 s | Cc1ccc(C)c(S(=O)(=O)N2CCC(C)(C(=O)NCc3ccccc3C)CC2)c1
643 s | CCn1nccc1C(=O)N1CCC(n2c(-c3ccsc3)nc3cccnc32)C1 (centres undefined)
596 s | O=C(c1csc(-c2ccc(N3CCCC3)nc2)n1)N1CCCC1
704 s | CCc1ccc(NC(=O)Nc2ccc(NC(=O)N3CCC(C(=O)NC)CC3)cc2)cc1
709 s | O=C(c1cn2ccccc2n1)N1CCN(c2ccc(Cl)cc2)CC1
799 s | Cc1ccc(NC(=O)C2CCc3sc(C(=O)N(C)C)cc3C2)c(C)c1 (centres undefined)
605 s | COc1ccc(OC)c(NC(=O)C2c3cc(OC)c(OC)cc3C(=O)N(C)C2c2cccnc2)c1 (centres undefined)
818 s | C=CCn1ccc2c(OCC(=O)Nc3ccc4c(c3)OCCO4)cccc2c1=O
688 s | COc1ccc(C(=O)NCCC(O)C(C)(C)C)cc1 (centres undefined)
853 s | CC(C)c1nc(-c2ccc(OC3CCN(S(=O)(=O)c4cn(C)cn4)C3)cc2)no1 (centres undefined)
769 s | Cc1csc(-c2cc(S(=O)(=O)NC(C)C)cn2CC(=O)N2CCCC2)n1
609 s | O=C(c1nc(-c2ccnc(N3CCCCC3)c2)no1)N1CCN(C2CCCCC2)CC1
712 s | CSc1ncccc1-c1nnc(C)o1
968 s | Cc1cccc(N2C(=O)CN(S(=O)(=O)c3ccccc3)CC2(C)C(=O)NC2CCCC2)c1C (centres undefined)
1150 s | Cc1ccc(C)c(N2CCN(S(=O)(=O)c3c(C)sc(C)c3-c3cc(C)[nH]n3)CC2)c1
973 s | COc1cc(OC)cc(-c2noc(-c3nn(-c4ccc(Cl)cc4)ccc3=O)n2)c1
593 s | O=C(NCCCN1CCc2ccccc2C1)C1CCCN(c2nnc(-n3cccc3)s2)C1 (centres undefined)

RP-LC retention time | Structure (SMILES)
764 s | CCCn1cc(CCNC(=O)c2c(F)cccc2Cl)c2cccnc21
615 s | CCNC(=O)c1nc2cccnc2n(C)c1=O
779 s | CCCn1cc(CCNS(=O)(=O)c2c(C)noc2C)c2cccnc21
1050 s | O=C(C1CCN(S(=O)(=O)c2cc(-c3noc(C4CCC4)n3)cs2)CC1)N1CCCCCC1
912 s | CCn1cc(-c2nc(C)c(C(=O)NCc3ccc(C)o3)s2)c2cccnc21
881 s | CCC(=O)N1c2ccc(S(=O)(=O)CCC(=O)N3CCCc4ccccc43)cc2CC1C (centres undefined)
774 s | CCn1cc(CCNS(=O)(=O)c2cccc(F)c2)c2cccnc21
829 s | COc1ccc(NC(=O)c2cnc(-c3ccc(OC)cc3)nc2-c2ccncc2)cc1
961 s | CCOC(=O)CC(=O)CSc1nc2sc(C)cc2c(=O)n1C
859 s | COCCc1noc(C2Cc3ccccc3N2C(=O)NCC(C)C)n1 (centres undefined)
688 s | COc1ccc(-c2cc(N3CCC(NC(=O)c4ccccc4Br)C3)n[nH]2)cc1 (centres undefined)
766 s | O=C1NC2(CCN(C(=O)NCCc3ccccc3)CC2)Nc2cc(Cl)ccc21
738 s | NC(=O)c1ccc(NC(=O)CSC2=Nc3ccccc3N=C(c3ccccn3)C2)cc1
586 s | O=C(NCc1cccnc1)c1ccc(-c2cccs2)nc1
1150 s | CCCCCCNC(=O)C1CCCN(c2ncc(-c3ccccc3)cn2)C1 (centres undefined)
791 s | CCc1ccc(S(=O)(=O)N2CCC3(CC2)NCCN=C3NCc2ccccc2C)cc1
811 s | O=C(c1ccc2c(c1)OCO2)N1CCC2(CC1)NC(=O)N(Cc1ccc(Cl)cc1)C2=O
570 s | Cc1noc(C)c1CN1CCN(C(=O)CSc2ccc(F)cc2)CC1
830 s | O=C1OCC/C1=C\c1ccc2c(c1)OCO2
805 s | CCCNC(=O)N1c2ccccc2NC2=C(C(=O)CC(c3ccco3)C2)C1c1ccc(OC)cc1 (centres undefined)
592 s | CC1=C(c2ccc(Cl)cc2)S(=O)(=O)N=C1N1CCC(C(=O)NCCN2CCOCC2)CC1

Structure (SMILES) | RP-LC retention time
COc1cc(N)c(Cl)cc1C(=O)NC1CN2CCC1CC2 (centres undefined) | 615 s
Cc1ncc2c(n1)C[C@@H]1CC[C@H]2N1C(=O)c1ccccn1 | 603 s
